Measurements as given in PMC12799421, “Inhibition of constitutive activity of the atypical chemokine receptor 3 by the small-molecule inverse agonist VUF16840” (Molecular Pharmacology, 2025).

Key:
Type in all cases: cell-based
hCXCR4 = molecular target: T1, hCXCR4 (Homo sapiens, UniProt P61073); assay: BRET β-arrestin2 recruitment to hCXCR4 in HEK293T cells; conditions: in the presence or absence of 100 nM CXCL12
T1 construct: The CXCR4-Rluc8 fusion protein corresponds to CXCR4 isoform b (NCBI: NM_003467.2); expressed in transfected cells; host or cells: HEK293T
Text: The NLuc-ACKR3 plasmid was a kind gift from Prof Hill (Nottingham University, Nottingham, United Kingdom),[31] […] The mVenus-CAAX and the hACKR3-NLuc constructs have been described by Zarca et al.[23] The sequence of the used ACKR3 constructs corresponds to National Center for Biotechnology Information (NCBI) database entry NM_020311.3. Radioligand binding studies used a mammalian expression vector pcDEF3 encoding ACKR3, N-terminally fused to an HA-tag and C-terminally fused to a triple Alanine tag (NotI). This construct was the template for the C-terminal ACKR3 fusion with the luminescent Rluc8 protein (NCBI: EF446136.1). The CXCR4-Rluc8 fusion protein corresponds to CXCR4 isoform b (NCBI: NM_003467.2) fused at the C-terminus with a triple Alanine linker (NotI) before the Rluc8 protein.
For 1·10^6 HEK293T cells, a transfection mix consisting of 2 μg plasmid DNA, 12 μg linear PEI in a total volume of 200 μL 150 mM NaCl was made and thoroughly vortexed. The transfection mix was incubated for 15 minutes and consequently added to a cell suspension with a final concentration of 3·10^5 cells/mL. […]
Fig. 2 VUF16840 inhibits constitutive as well as agonist induced β-arrestin2 recruitment to ACKR3. […] Subsequently, β-arrestin2 recruitment to hACKR3 was detected by NanoBiT complementation. […]

[1] = system: panel of 19 human chemokine receptors; assay: NanoBiT-complementation based chemokine receptor screen (agonist and antagonist mode)
Description: The pharmacological modulation of all chemokine receptors by VUF16840 was performed according to an established method.[8]^,[23]^,[39] Briefly, β-arrestin2 recruitment to chemokine receptors in response to 1 μM VUF16840 or positive control chemokines was monitored by NanoLuc complementation assay (NanoBiT, Promega). Four hours after transfection, cells were harvested, incubated for 25 minutes at 37 °C with furimazine and distributed into a white 96-well plates (1 × 10^5 cells per well). β-Arrestin2 recruitment was then detected for 20 minutes upon treatment with 1 μM VUF16840 (or increasing concentrations ligand for experiments with CC chemokine receptor [CCR3]) using the Mithras LB940 luminometer (Berthold Technologies). To evaluate the antagonist properties of VUF16840, full agonists of each receptor were added after the 20-minute incubation with VUF16840. Signal from wells treated with full agonist only was defined as 100% activity and signals from wells treated with no agonist were used to set 0% activity. […]
Fig. 4 Modulation of a panel of chemokine receptors by VUF16840. β-Arrestin2 recruitment toward a full panel of 19 chemokine receptor was measured using a NLuc complementation assay in HEK293T cells. […]

hACKR3-NLuc = molecular target: T2, hACKR3-NLuc (Homo sapiens, UniProt P25106); assay: Bystander BRET detection of ACKR3 membrane localization; conditions: 1 μM VUF16840
T2 construct: expressed in transfected cells; host or cells: HEK293T
T2 sequence (P25106 whole entry): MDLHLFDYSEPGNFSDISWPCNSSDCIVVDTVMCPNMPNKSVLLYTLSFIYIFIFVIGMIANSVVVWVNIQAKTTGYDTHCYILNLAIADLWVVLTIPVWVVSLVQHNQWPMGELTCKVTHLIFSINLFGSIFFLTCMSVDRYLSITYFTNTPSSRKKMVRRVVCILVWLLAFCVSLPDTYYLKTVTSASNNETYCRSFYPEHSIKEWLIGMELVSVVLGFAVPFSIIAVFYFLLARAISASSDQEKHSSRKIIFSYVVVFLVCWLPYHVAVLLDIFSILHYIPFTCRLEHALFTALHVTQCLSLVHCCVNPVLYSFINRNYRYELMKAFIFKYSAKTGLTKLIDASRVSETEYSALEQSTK
Description: Ligand-induced receptor mobilization to the plasma membrane was monitored by bystander NanoBRET according to an established method.[36] For this assay, 5 × 10^6 HEK293T cells were seeded in 10-cm dishes and cotransfected with plasmids encoding ACKR3 C-terminally tagged with NLuc and mNeonGreen N-terminally tagged with the plasma membrane targeting sequence corresponding to the first 11 residues ([sequence]) of the human Lyn-kinase.[37] Twenty-four hours after transfection, cells were distributed into black 96-well plates (1 × 10^5 cells per well) and treated with chemokines (100 nM). After 45-minute incubation at 37 °C, coelenterazine H (10 μM) was added and donor emission (460 nm) and acceptor emission (535 nm) were immediately measured on a GloMax Discover (Promega) plate reader.
Similarly, to determine the concentration-dependent effects of ligand-induced ACKR3 mobilization to the cell membrane, cells were transfected with membrane-targeted mVenus (mVenus-CAAX) and ACKR3-NL (vide supra). […] Cells were subsequently incubated at 37 °C for 20 minutes after which the total light intensity was measured at 475 and 535 nm (both with a bandwidth of 30 nm) using the PHERAstar-FSX with a dual emission filter. […]
The resulting proximity between hACKR3-NLuc and was determined as bystander BRET. […] Expression of hACKR3-NLuc at the cell surface was determined by the measurement of bystander BRET. […]

T1 sequence (P61073 whole entry, the tested form may be a part, canonical isoform): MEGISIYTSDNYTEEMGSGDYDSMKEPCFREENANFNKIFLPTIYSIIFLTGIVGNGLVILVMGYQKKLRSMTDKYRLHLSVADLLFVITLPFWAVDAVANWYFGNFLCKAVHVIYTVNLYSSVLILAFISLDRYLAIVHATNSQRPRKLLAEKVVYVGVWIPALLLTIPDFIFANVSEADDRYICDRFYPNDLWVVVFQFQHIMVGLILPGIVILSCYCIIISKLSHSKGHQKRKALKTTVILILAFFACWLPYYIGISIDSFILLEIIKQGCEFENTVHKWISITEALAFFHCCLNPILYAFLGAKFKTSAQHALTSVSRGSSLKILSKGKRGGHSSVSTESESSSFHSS

Question: Which results are given for `COc1ccccc1CCNC(=O)C1CN(C2CCCCC2)CCC1NC(=O)c1cc(-c2ccc(F)cc2F)on1` (stereo not shown) [VUF16840]?
Answer: effect on β-arrestin2 recruitment to CXCR4 (hCXCR4): did not affect; agonist mode screen, modulation of β-arrestin2 recruitment ([1]; 1 μM VUF16840): only modulated β-arrestin2 recruitment to hACKR3 and hCCR3; antagonist-mode inhibition of any tested chemokine receptor ([1]; 1 μM VUF16840 coincubated with respective endogenous agonist): ≤ 50%; effect on bystander BRET signal hACKR3-NLuc / membrane-targeted mNeonGreen (cell surface localization) (hACKR3-NLuc): increased the bystander BRET signals
